US20220016277A1, “MACROCYCLIC COMPLEXES OF RADIONUCLIDES AND THEIR USE IN RADIOTHERAPY OF CANCER” (Cornell University, priority 2018, published 2022)

Experiment: Organ distribution of ^225Ac complexes following intravenous injection in mice
Assay type: in vivo, C57BL/6 mice
Protocol: In Vivo Biodistribution of ^225Ac Complexes of Macropa and DOTA. All experiments were approved by the Institutional Animal Care Committee (IACC) of the University of British Columbia and were performed in accordance with the Canadian Council on Animal Care Guidelines. A total of 9 female C57BL/6 mice (6-8 weeks old, 20-25 g) were used for the biodistribution study of each radiometal complex, n=3 for each time point.
Macropa (100 μL of a 1 mg/mL solution in NH4OAc) was diluted with 387 μL of NH4OAc (1 M, pH 7), and an aliquot (203 μL) of ^225Ac(NO3)3 (˜157 kBq) was then added; the pH of this solution was adjusted to 6.5-7 by the addition of 1 M NaOH (210 μL, trace metal grade). After 5 min at ambient temperature, the reaction solution was analyzed by TLC (0.4 M pH 4 sodium citrate as the eluent), which confirmed >95% radiochemical yield. The reaction was allowed to proceed overnight, and the radiochemical yield was again confirmed to be >95% the following morning. At this time, mice were anesthetized by 2% isoflurane, and approximately 100 μL (10-15 kBq) of the [^225Ac(macropa)]^+ complex were injected into the tail vein of each mouse. After injection, mice were allowed to recover and roam freely in their cages, and were euthanized by CO2 inhalation at 15 min, 1 h, or 5 h (n=3 at each time point) post-injection. Blood was collected by cardiac puncture and placed into an appropriate test tube for scintillation counting. Tissues collected included heart, liver, kidneys, lungs, small intestine, large intestine, brain, bladder, spleen, stomach, pancreas, bone, thyroid, tail, urine, and feces. Tissues were weighed and then counted with a calibrated gamma counter (Packard, Cobra II model 5002) using three energy windows: 60-120 keV (window A), 180-260 keV (window B), and 400-480 keV (window C). Counting was performed both immediately after sacrifice and after 7 days; counts were decay corrected from the time of injection and then converted to the percentage of injected dose (% ID) per gram of tissue (% ID/g). […]
The biodistribution studies of [^225Ac(DOTA)]^− and ^225Ac(NO3)3 were carried out as described above for [^225Ac(macropa)]^+, with the following modifications. [^225Ac(DOTA)^− was prepared by adding ^225Ac(NO3)3 (338 μL, 1.1 MBq) to a solution of DOTA (100 μg, 20 mg/mL in H2O) in NH4OAc (467 μL, 0.15 M, pH 7). The pH of the solution was adjusted to 7 using NH4OAc (150 μL, 1 M, pH 7) and the solution was heated at 85° C. for 45 min. RCY >99% was confirmed by TLC as described above. [^225Ac(DOTA)]^− was diluted with saline to a final concentration of 0.05 MBq/100 μL, and 100 μL were injected into each mouse. ^225Ac(NO3)3 (˜58 μL, 0.4 MBq) was diluted and injected in the same manner as [^225Ac(DOTA)]^−. One mouse that was to be euthanized at the 5 h time point in the [^225Ac(DOTA)]^− study died shortly after injection. In the same manner, one mouse that was to be euthanized at the 1 h time point in the ^225Ac(NO3)3 study died.
The in vivo stability [^225Ac(macropa)]^+ was examined by comparing its biodistribution to those of ^225Ac(NO3)3 and [^225Ac(DOTA)]^−. C57BL/6 mice were injected via tail vein with 10-50 kBq of each radiometal complex and were sacrificed after 15 min, 1 h, or 5 h. The amount of ^225Ac retained in each organ was quantified by gamma counting and reported as the percent of injected dose per gram of tissue (% ID/g). The results of these studies are compiled in Tables 1-3. Inadequate stability of an ^225Ac complex leading to the loss of radioisotope in vivo is manifested by the accumulation of ^225Ac in the liver, spleen, and bone of mice.^[11,12,32] […] The biodistribution profile of [^225Ac(macropa)]^+ (FIG. 3B) differs markedly from that of ^225Ac(NO3)3. […] Its biodistribution profile was similar to that of [^225Ac(DOTA)]^− (FIG. 3C), which has been previously shown to retain ^225Ac^3+ in vivo.^[7]

[1] = 1 h post i.v. injection, energy window B (180-260 keV)
[2] = 1 h post i.v. injection, energy window C (400-480 keV)
[3] = 5 h post i.v. injection, energy window A (60-120 keV)
[4] = 5 h post i.v. injection, energy window B (180-260 keV)
[5] = 5 h post i.v. injection, energy window C (400-480 keV)
[6] = C57BL/6 mice, i.v., 15 min to 5 h

SMILES: O=[N+]([O-])[O-].O=[N+]([O-])[O-].O=[N+]([O-])[O-].[225Ac] [^225Ac(NO3)3]
- Organ distribution: lungs [1]: 8.4426 % ID/g
- Organ distribution: pancreas [1]: 2.1579 % ID/g
- Organ distribution: small intestines [1]: 1.5192 % ID/g
- Organ distribution: spleen [1]: 37.1540 % ID/g
- Organ distribution: stomach [1]: 1.5867 % ID/g
- Organ distribution: tail [1]: 6.4201 % ID/g
- Organ distribution: thyroids [1]: 5.7426 % ID/g
- Organ distribution: urine [1]: 7.0564 % ID/g
- Organ distribution: bladder [2]: 2.2929 % ID/g
- Organ distribution: blood [2]: 11.3736 % ID/g
- Organ distribution: bone (femur + joint) [2]: 2.7213 % ID/g
- Organ distribution: brain [2]: 0.4402 % ID/g
- Organ distribution: feces [2]: 0.1122 % ID/g
- Organ distribution: heart [2]: 3.3464 % ID/g
- Organ distribution: kidneys [2]: 6.2070 % ID/g
- Organ distribution: large intestines [2]: 0.4366 % ID/g
- Organ distribution: liver [2]: 23.6180 % ID/g
- Organ distribution: lungs [2]: 5.2078 % ID/g
- Organ distribution: pancreas [2]: 1.8508 % ID/g
- Organ distribution: small intestines [2]: 3.5548 % ID/g
- Organ distribution: spleen [2]: 38.1082 % ID/g
- Organ distribution: stomach [2]: 2.3350 % ID/g
- Organ distribution: tail [2]: 9.0877 % ID/g
- Organ distribution: thyroids [2]: 0.0000 % ID/g
- Organ distribution: urine [2]: 104.9103 % ID/g
- Organ distribution: bladder [3]: 1.4947 % ID/g
- Organ distribution: blood [3]: 1.9886 % ID/g
- Organ distribution: bone (femur + joint) [3]: 3.5460 % ID/g
- Organ distribution: brain [3]: 0.0452 % ID/g
- Organ distribution: feces [3]: 0.9445 % ID/g
- Organ distribution: heart [3]: 1.3450 % ID/g
- Organ distribution: kidneys [3]: 4.6910 % ID/g
- Organ distribution: large intestines [3]: 0.6479 % ID/g
- Organ distribution: liver [3]: 59.8156 % ID/g
- Organ distribution: lungs [3]: 4.1871 % ID/g
- Organ distribution: pancreas [3]: 0.4874 % ID/g
- Organ distribution: small intestines [3]: 1.3704 % ID/g
- Organ distribution: spleen [3]: 62.9614 % ID/g
- Organ distribution: stomach [3]: 2.6131 % ID/g
- Organ distribution: tail [3]: 23.4055 % ID/g
- Organ distribution: thyroids [3]: −2.7052 % ID/g
- Organ distribution: urine [3]: 4.8267 % ID/g
- Organ distribution: bladder [4]: 1.5234 % ID/g
- Organ distribution: blood [4]: 2.0018 % ID/g
- Organ distribution: bone (femur + joint) [4]: 3.8533 % ID/g
- Organ distribution: brain [4]: 0.0290 % ID/g
- Organ distribution: feces [4]: 1.0201 % ID/g
- Organ distribution: heart [4]: 1.3948 % ID/g
- Organ distribution: kidneys [4]: 3.8752 % ID/g
- Organ distribution: large intestines [4]: 0.6744 % ID/g
- Organ distribution: liver [4]: 62.0765 % ID/g
- Organ distribution: lungs [4]: 4.3379 % ID/g
- Organ distribution: pancreas [4]: 0.4455 % ID/g
- Organ distribution: small intestines [4]: 1.2201 % ID/g
- Organ distribution: spleen [4]: 65.9117 % ID/g
- Organ distribution: stomach [4]: 2.5322 % ID/g
- Organ distribution: tail [4]: 25.4744 % ID/g
- Organ distribution: thyroids [4]: −4.6044 % ID/g
- Organ distribution: urine [4]: 3.3142 % ID/g
- Organ distribution: bladder [5]: 3.4975 % ID/g
- Organ distribution: blood [5]: 2.1769 % ID/g
- Organ distribution: bone (femur + joint) [5]: 3.5851 % ID/g
- Organ distribution: brain [5]: 0.0430 % ID/g
- Organ distribution: feces [5]: 0.8535 % ID/g
- Organ distribution: heart [5]: 1.2018 % ID/g
- Organ distribution: kidneys [5]: 4.2061 % ID/g
- Organ distribution: large intestines [5]: 1.0259 % ID/g
- Organ distribution: liver [5]: 54.1727 % ID/g
- Organ distribution: lungs [5]: 5.4923 % ID/g
- Organ distribution: pancreas [5]: 0.4643 % ID/g
- Organ distribution: small intestines [5]: 1.2922 % ID/g
- Organ distribution: spleen [5]: 62.2357 % ID/g
- Organ distribution: stomach [5]: 2.0358 % ID/g
- Organ distribution: tail [5]: 28.4443 % ID/g
- Organ distribution: thyroids [5]: −0.4455 % ID/g
- Organ distribution: urine [5]: 5.8548 % ID/g
- blood clearance and excretion (in words) [6]: slow blood clearance and excretion
- organ accumulation (in words) [6]: large accumulation in the liver and spleen
